Laboratory results reported in patent US20180193361A1, “GUT ANTI-INFLAMMATORY AGENTS FOR REGULATION OF HIGH BLOOD GLUCOSE LEVELS” (UNIVERSITY HEALTH NETWORK, priority 2015, published 2018).

Key:
[1] = test system: oral tolerance to OVA antigen; test: Oral tolerance studies (OVA); assay type: in vivo, mice; conditions: HFD 5-ASA vs HFD
Description: We administered oral ovalbumin (OVA) in the form of drinking water (1 mg/mL) for 7 days to NCD-, HFD- or HFD 5-ASA-fed mice to induce oral tolerance. Average consumption was similar across different groups, at 5 mL per day. Following oral tolerance induction, we immunized animals with or without oral tolerance induction subcutaneously with OVA/CFA (50 μg per side) on both sides of the chest. Axillary draining lymph nodes and VAT were collected 7 days following immunization and subjected to immunological analysis, including OVA323-339/I-A^b tetramer staining and OVA-induced cytokine production and proliferation in vitro. Briefly, we processed axillary lymph nodes into single-cell suspension through a 70 μm filter and cultured the cells (5×10^5/well) in 96-well U-bottom plate with indicated concentrations of OVA (Sigma). We collected culture supernatants at 48 h for determination of IL-2 and IFNγ via ELISA (Biolegend). To measure OVA-specific antibody responses, we performed ELISA by plating diluted serum samples (1:200-1:4000) onto OVA-coated ELISA plates (10 μg/mL), followed by biotinylated anti-mouse isotype-specific secondary antibodies (1:5000 dilution) (Southern Biotech) and HRP-conjugated streptavidin (Biolegend). To measure-OVA-specific Tregs, we stained VAT immune cells with a 1:200 dilution of PE-conjugated OVA323-339/I-A^b or control hCLIP/I-A^b tetramers (NIH Tetramer Core Facility) in FBS-supplemented RPM-I for 4 hours at 37° C., followed by antibody staining for other surface antigens and Foxp3.

endotoxin, anti-LPS IgG = test: Endotoxin and anti-LPS IgG measurements; assay type: in vivo, mice; conditions: HFD vs HFD 5-ASA, 14 weeks
Excerpt: We measured endotoxin levels in the serum and adipose tissue using Pyrogene Recombinant C endotoxin detection fluorescence kit (Lonza Inc.). We measured mouse serum anti-LPS IgG antibody levels with a commercially available kit (Chrondrex Inc.).

[2] = HPLC of 5-ASA in serum and tissues with internal 4-ASA standard; assay type: in vivo, mice; conditions: mouse, colon and small bowel relative to serum, oral
Description: We cut frozen tissues and homogenized them in 80% methanol (30 mg/mL) on ice. We spiked 100 μL aliquots with 4-ASA used as internal standard (200 ng), and 400 μL 80% methanol were added. For plasma, we thawed samples from −80° C. at room temperature. 75 μL plasma were spiked with 4-ASA used as internal standard (200 ng) and mixed with 300 μL of methanol for 5 minutes (vortex). Samples were centrifuged (20,000×g, 15 minutes, 4° C.). Supernatants were separated from the pellets and taken to dryness under nitrogen gas in the fumehood. We then reconstituted the dry residues in 200 μL of mobile phase, vortexed for 1 minute and centrifuged at 20,000×g for 15 minutes. The supernatants were transferred to autosampler vials fitted with inserts and sealed caps. Aliquots of the solution were injected into HPLC for analysis.
We performed high performance liquid chromatography using a Dionex Ultimate 3000 system equipped with a binary pump, a built-in autosampler, a photodiode array and a RF 2000 fluorescence detector. […] The analytes were monitored by fluorescence (excitation: 337 nm and emission: 432 nm) and by (UV235 nm). We analyzed the chromatograms produced using Chromeleon version 6.8 software.

[3] = test system: C57BL/6 mice on HFD with established metabolic disease; test: Treatment of established obesity-associated IR (switch to HFD 5-ASA after 8 weeks HFD); assay type: in vivo; conditions: 8 weeks HFD then 8 weeks HFD 5-ASA (1500 mg/kg/day) vs HFD only
Description: Mice. Mice were fed either NCD (15 kcal % fat) or HFD (Research Diets, 60 kcal % fat, irradiated) starting at 6 weeks of age. All studies were performed under the approval of Animal User Protocols by the Animal Care Committee at the University Health Network. Mice were maintained in a pathogen-free, temperature-controlled environment on a 12-hour light and dark cycle. All mice used in comparative studies were male, age-matched, and litter mates where possible. […] We confirmed T cell-specific floxing of the PPARγ gene in Lck-Cre+ PPARγfl/fl mice by qPCR with a minimum of at least 90% reduction in PPARγ expression. […] We measured body weights, GTTs, ITTs, serum insulin, and fat cell diameter as previously described (Winer et al., 2009a). All GTTs were performed with a 1.5 g/kg glucose i.p. injection unless indicated otherwise.

[4] = test system: bowel and VAT immune cell populations; test: Immune cell populations in NCD vs NCD 5-ASA mice; assay type: in vivo; conditions: bowels or VATs, NCD 5-ASA vs untreated NCD mice
Excerpt: Isolation of bowel immune cells. For isolation of small intestine lamina propria immune cells, we used the protocol described by Fritz et al (Fritz et al., 2012), and processed approximately 10 cm from the distal end of the small intestine (jejunum and ileum). For the isolation of colonic lamina propria immune cells, we used the protocol described by Geddes et al (Geddes et al., 2011). Following lamina propria isolations, we passed immune cells through 70 μm strainers, and used them for flow cytometry.
We isolated VAT-associated immune cells as previously described (Winer et al., 2009a).
(§1) We stained single cell suspensions for 30 min on ice with commercial antibodies. Flow cytometry antibodies including CD45.2 (104), CD3 (145-2C11), CD4 (GK1.5), CD8 (53-6.7), CD25 (PC61), γδTcR (GL3), Foxp3 (150D), IL-17 (TC11-18H10.1), IFNγ XMG1.2), α4β7 (DATK32), CCR9 (CW-1.2), CD11b (M1/70), F4/80 (BM8), CD11c (N418), CD206 (C068C2), Gr-1 (RB6-8C5), IL-7Rα (A7R34), B220 (RA3-6B2), Thy1.2 (30-H12), NKp46 (29A1.4), and Sca-1 (D7) were purchased from Biolegend. Intracellular staining was performed using a Foxp3 staining buffer kit (eBioscience). We acquired data on a Fortessa flow cytometer (BD Biosciences) and analyzed it with FlowJo software (Tree Star). We gated ILCs as described (Kirchberger et al., 2013).

[5] = test system: spleen and blood immune cells, serum cytokines; test: Systemic immune function during HFD feeding (spleen, blood, serum cytokines); assay type: in vivo, mice; conditions: HFD vs HFD 5-ASA
Description: as §1
We measured serum cytokines by Luminex Multiplex cytokine assay (Millipore, run by the UHN Microarray Center), and quantified IL-10 and IFN-γ in supernatants of anti-CD3/CD28-stimulated splenocytes or bowel immune cells (Winer et al., 2009b) by ELISA (Biolegend).

splenic T cells = test: In vitro IFNγ secretion, anti-CD3/CD28-activated splenic T cells; assay type: cell-based; conditions: splenic T cells from HFD-fed WT mice, 72 hour; 5-ASA 0.1 mM
Description: To measure the effect of IFNγ on tight-junction gene expression, we treated MODE-K cells with recombinant mouse IFNγ (Biolegend). We purified bulk dendritic cells and T cells from murine small bowels and spleens using a negative selection DC or T cell isolation kit (Stem Cell Technologies). We plated T cells at 5×10^5 cells/well with plate-bound anti-CD3/CD28 (1 μg/ml, Biolegend). […] We collected supernatants for cytokine measurements after 72 hour incubation. […] After 24 hours, we washed the cells with PBS and co-cultured them (1×10^4 cells/well) with OVA323-339 peptide and OT-II splenic or small bowel T cells (5×10^4 cells/well) for 48 hours. Supernatants were collected at 48 hours for cytokine measurement. We measured serum cytokines by Luminex Multiplex cytokine assay (Millipore, run by the UHN Microarray Center), and quantified IL-10 and IFN-γ in supernatants of anti-CD3/CD28-stimulated splenocytes or bowel immune cells (Winer et al., 2009b) by ELISA (Biolegend).

SMILES: Nc1ccc(O)c(C(=O)O)c1 [5-ASA, 5-aminosalicylic acid]
- OVA-specific IgA ([1]; oral OVA then OVA-CFA immunization): nearly threefold increase
- antigen-specific Tregs to OVA in VAT ([1]; OVA/I-Ab tetramers): nearly fourfold increase
- OVA-specific T cell-derived IFNγ ([1]; draining lymph nodes): reduction
- OVA-specific T cell-derived IL-2 ([1]; draining lymph nodes): reduction
- IgG responses to LPS (serum anti-LPS IgG) (endotoxin, anti-LPS IgG): markedly diminished
- VAT endotoxin levels (endotoxin, anti-LPS IgG): trended lower
- serum endotoxin (endotoxin, anti-LPS IgG): reduced
- Kp [2]: ~20
- body weight [3]: did not change
- glucose tolerance [3]: significant improvements
- insulin tolerance [3]: significant improvements
- significant anti-inflammatory effects on immune cell populations [4]: not seen
- circulating immune cell polarity in the blood ([5]; 14 weeks): no effects
- immune cell populations in the spleen ([5]; 14 weeks): no effects
- serum levels of cytokines ([5]; Luminex, 23 cytokines, 14 weeks): mostly unchanged
- serum RANTES ([5]; Luminex, 14 weeks): significant but small increase
- serum TNFα ([5]; Luminex, 14 weeks): reduction
- stimulated spleen immune cell cytokine secretion ([5]; cultured splenocytes, anti-CD3/CD28 48 hrs): no effects
- IFNγ production (splenic T cells): not
